Blank lines part the entries; values can stand above or below the compound they belong to.
How the values were obtained:
[1] = target: Phosphatidylinositol 4-kinase alpha (Homo sapiens, UniProt P42356); assay: Selectivity interaction (Kinase panel (radiometric assay)) EUB0000877a PI4KA
[2] = target: T1, Mitogen-activated protein kinase kinase kinase 5 (Homo sapiens) (UniProt Q99683); assay: Selectivity interaction (Kinase panel (DSF assay)) EUB0001559a MAP3K5
T1 sequence (whole entry): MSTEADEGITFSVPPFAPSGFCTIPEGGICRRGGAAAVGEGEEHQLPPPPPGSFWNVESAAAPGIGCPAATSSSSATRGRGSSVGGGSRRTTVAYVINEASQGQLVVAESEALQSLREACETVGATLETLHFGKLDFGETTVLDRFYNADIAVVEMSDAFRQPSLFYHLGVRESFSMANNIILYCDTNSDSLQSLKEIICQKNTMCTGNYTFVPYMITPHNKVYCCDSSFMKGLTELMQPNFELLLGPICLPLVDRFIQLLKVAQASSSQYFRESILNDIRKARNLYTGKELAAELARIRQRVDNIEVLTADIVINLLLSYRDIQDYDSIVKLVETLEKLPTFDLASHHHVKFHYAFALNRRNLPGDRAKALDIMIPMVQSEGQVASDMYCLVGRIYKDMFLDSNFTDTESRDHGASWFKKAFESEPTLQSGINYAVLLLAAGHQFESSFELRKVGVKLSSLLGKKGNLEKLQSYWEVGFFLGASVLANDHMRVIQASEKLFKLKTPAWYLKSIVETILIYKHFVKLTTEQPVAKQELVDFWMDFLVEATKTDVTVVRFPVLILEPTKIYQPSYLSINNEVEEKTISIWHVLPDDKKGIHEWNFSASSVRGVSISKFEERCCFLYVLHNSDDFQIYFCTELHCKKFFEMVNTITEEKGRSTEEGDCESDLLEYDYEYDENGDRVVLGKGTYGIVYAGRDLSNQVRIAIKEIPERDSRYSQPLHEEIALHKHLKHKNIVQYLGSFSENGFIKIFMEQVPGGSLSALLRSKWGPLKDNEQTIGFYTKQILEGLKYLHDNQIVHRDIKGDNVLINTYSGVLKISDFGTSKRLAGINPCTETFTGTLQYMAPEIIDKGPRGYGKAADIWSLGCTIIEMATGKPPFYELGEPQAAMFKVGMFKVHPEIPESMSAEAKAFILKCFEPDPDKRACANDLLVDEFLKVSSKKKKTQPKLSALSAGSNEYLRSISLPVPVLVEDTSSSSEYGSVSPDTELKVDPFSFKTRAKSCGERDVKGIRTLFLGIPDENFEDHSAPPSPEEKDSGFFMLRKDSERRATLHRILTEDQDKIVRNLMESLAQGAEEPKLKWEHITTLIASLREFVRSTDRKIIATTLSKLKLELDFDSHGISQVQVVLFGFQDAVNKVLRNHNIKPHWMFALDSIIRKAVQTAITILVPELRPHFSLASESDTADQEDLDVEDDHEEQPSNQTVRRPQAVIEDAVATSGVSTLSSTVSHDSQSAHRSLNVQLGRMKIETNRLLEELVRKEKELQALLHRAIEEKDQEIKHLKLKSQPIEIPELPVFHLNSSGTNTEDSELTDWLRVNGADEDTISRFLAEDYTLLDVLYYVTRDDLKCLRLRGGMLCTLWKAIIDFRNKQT

[3] = target: T2, Cytoplasmic tyrosine-protein kinase BMX (Homo sapiens) (UniProt P51813); assay: Selectivity interaction (Kinase panel (DSF assay)) EUB0001559a BMX
T2 sequence (whole entry): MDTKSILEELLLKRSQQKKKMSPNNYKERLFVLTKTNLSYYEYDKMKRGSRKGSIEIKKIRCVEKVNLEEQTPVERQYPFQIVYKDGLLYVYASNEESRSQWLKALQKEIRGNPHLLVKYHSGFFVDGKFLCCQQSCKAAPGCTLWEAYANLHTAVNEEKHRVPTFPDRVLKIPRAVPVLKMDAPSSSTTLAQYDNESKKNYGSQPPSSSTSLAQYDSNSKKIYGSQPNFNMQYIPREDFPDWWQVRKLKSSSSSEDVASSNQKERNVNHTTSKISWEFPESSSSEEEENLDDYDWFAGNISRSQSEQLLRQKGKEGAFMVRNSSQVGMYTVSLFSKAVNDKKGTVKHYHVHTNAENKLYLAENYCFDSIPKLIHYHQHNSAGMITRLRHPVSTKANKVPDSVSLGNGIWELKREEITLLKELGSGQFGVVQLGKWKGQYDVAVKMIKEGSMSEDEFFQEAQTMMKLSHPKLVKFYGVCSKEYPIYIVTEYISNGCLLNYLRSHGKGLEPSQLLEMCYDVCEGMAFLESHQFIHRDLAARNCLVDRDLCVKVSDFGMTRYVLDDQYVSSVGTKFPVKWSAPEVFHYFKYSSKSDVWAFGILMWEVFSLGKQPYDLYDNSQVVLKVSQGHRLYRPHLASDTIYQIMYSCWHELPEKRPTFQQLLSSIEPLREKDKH

[4] = target: T3, cAMP-dependent protein kinase catalytic subunit PRKX (Homo sapiens) (UniProt P51817); assay: Selectivity interaction (SelectScreen profiling (Invitrogen)) EUB0000607a PRKX; details: at 2 µM
T3 sequence (whole entry): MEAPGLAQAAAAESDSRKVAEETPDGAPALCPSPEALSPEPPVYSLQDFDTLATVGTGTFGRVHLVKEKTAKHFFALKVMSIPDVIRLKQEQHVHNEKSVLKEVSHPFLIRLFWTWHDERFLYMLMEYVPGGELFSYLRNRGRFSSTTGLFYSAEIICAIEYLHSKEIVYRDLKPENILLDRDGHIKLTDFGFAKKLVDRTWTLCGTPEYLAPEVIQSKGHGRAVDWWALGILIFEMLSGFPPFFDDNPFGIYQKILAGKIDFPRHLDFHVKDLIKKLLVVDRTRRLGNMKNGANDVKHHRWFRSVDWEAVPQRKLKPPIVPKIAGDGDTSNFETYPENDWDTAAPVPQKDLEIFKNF

Sequence of Phosphatidylinositol 4-kinase alpha (P42356 whole entry): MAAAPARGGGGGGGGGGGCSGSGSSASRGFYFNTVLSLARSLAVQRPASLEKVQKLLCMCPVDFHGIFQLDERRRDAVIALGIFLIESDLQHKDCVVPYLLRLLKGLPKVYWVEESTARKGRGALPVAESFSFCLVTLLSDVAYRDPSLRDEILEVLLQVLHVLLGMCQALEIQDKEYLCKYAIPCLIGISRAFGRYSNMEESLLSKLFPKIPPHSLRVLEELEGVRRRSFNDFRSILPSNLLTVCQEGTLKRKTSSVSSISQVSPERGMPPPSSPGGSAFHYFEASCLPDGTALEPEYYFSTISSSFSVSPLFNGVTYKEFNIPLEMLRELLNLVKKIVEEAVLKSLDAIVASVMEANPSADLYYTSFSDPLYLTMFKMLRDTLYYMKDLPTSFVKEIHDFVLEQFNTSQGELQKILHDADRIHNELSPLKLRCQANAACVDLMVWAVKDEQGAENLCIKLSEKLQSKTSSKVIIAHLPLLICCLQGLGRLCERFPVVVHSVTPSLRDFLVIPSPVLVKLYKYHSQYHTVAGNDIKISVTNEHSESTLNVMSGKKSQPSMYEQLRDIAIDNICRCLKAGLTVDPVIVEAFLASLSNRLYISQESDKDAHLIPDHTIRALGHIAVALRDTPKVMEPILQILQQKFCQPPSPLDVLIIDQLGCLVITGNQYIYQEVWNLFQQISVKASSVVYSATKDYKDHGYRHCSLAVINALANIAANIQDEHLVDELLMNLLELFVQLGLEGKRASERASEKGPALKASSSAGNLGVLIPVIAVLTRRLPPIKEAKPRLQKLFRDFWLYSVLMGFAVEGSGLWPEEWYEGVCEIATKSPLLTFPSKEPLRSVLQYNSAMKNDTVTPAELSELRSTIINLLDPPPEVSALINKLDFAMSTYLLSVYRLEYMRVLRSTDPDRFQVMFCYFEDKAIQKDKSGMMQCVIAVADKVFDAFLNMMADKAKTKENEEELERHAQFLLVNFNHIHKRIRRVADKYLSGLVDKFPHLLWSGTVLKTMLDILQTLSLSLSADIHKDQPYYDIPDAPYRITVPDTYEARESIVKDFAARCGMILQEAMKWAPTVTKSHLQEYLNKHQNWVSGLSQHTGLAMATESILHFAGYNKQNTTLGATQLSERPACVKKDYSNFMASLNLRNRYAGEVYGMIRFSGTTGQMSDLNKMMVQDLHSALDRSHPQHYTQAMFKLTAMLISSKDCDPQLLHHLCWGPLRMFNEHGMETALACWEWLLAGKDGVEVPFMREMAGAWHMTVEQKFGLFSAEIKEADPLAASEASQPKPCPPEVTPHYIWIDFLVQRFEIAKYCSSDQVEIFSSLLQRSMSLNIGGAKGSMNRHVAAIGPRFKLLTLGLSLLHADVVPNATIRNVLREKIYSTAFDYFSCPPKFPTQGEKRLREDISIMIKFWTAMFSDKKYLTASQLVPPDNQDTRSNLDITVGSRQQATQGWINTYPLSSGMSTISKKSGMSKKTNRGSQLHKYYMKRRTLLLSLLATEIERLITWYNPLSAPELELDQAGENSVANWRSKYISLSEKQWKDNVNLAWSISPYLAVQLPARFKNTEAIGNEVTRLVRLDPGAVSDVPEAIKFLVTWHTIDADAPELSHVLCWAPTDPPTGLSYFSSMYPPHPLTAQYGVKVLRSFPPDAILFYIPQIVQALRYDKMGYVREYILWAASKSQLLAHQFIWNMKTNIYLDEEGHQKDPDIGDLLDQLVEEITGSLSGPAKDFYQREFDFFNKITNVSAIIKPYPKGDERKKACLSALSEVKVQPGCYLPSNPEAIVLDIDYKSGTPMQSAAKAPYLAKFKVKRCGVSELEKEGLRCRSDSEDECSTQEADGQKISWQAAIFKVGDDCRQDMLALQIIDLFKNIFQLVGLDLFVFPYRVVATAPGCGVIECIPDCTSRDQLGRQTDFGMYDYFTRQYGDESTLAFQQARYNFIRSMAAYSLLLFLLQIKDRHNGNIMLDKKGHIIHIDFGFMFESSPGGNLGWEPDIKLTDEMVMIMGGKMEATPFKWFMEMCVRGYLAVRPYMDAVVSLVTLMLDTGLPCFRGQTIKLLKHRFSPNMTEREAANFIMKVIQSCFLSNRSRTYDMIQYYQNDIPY

IC50 [1]: > 9.1 µM
Structure (SMILES): CCC(=O)N1CC[C@H](Nc2ncnc3c2CN(c2cnc(OC)c(C(F)(F)F)c2)CC3)C1 [LENIOLISIB]

dTM [2]: -0.3 K
dTM [3]: 0.1 K
Structure (SMILES): CN(C(=O)c1cnn2cccnc12)c1cc2c(cc1N1CCOCC1)C(=O)N(C[C@@H](F)C(C)(C)O)C2

Structure (SMILES): CNC(=O)Nc1ccc(-c2nc(N3CC4CCC(C3)O4)c3cnn(C4CCC5(CC4)OCCO5)c3n2)cc1
% of inhibition [4]: 5%

From ChEMBL document CHEMBL5465560, “Selectivity Literature for EUbOPEN Chemogenomic Library” (2024)
